# Source: patent US4226875A, “Novel spiro-oxazolidinediones” (Pfizer Inc., priority 1979, dated 1980)
# Legend:
# [1] = test system: partially purified aldose reductase enzyme obtained from calf lens; test: inhibition of aldose reductase enzyme activity (procedure of US 3,821,383 / Hayman et al.); format: biochemical; conditions: compound concentration 10^-4 M
# Source text: (§1) The activity of the compounds of the present invention as agents for the control of chronic diabetic complications may be determined by a number of standard biological or pharmacological tests. Suitable tests include (1) measuring their ability to inhibit the enzyme activity of isolated aldose reductase; (2) measuring their ability to reduce or inhibit sorbitol accumulation in the sciatic nerve of acutely streptozotocinized (i.e. diabetic) rats; (3) measuring their ability to reverse already elevated sorbitol levels in the sciatic nerve and lens of chronic streptozotocin-induced diabetic rats; (4) measuring their ability to prevent or inhibit galactitol formation in the lens of acutely galactosemic rats; and (5) measuring their ability to delay cataract formation and reduce the severity of lens opacities in chronic galactosemic rats. Suitable experimental procedures are described in U.S. Pat. No. 3,821,383 and the references cited therein.
# (§2) The substrate employed was partially purified aldose reductase enzyme obtained from calf lens. […] Thus, for example, the compounds may be tested for their ability to reduce or inhibit sorbitol accumulation in the sciatic nerve of streptozotocinized (i.e., diabetic) rats by the procedure essentially described in U.S. Pat. No. 3,821,383. The amount of sorbitol accumulation in the sciatic nerves is measured 27 hours after induction of diabetes. […]
# [2] = test system: sorbitol accumulation in the sciatic nerve of streptozotocinized (i.e., diabetic) rats; test: sorbitol accumulation in the sciatic nerve of streptozotocinized (diabetic) rats; format: in vivo; conditions: oral; 50 mg/kg body weight; preliminary tests
# Source text: as §1, §2
SMILES,percent inhibition of enzyme activity [1],activity in reducing or inhibiting sorbitol accumulation in the sciatic nerve [2]
"O=C1NC(=O)C2(CCCc3ccccc32)O1 (stereo not drawn) [1',2',3',4'-tetrahydro-spiro-[oxazolididine(5,1')naphthalene]-2,4-dione]",75%,no significant activity
"O=C1NC(=O)C2(CCc3ccccc32)O1 (stereo not drawn) [Spiro-[indane(1,5')oxazolidine]-2',4'-dione]",81%,
